{
  "source": "patent US10472686B2",
  "about": "“Mechanisms of antimicrobial susceptibility” (Roche Molecular Systems, Inc., priority 2015, dated 2019)",
  "key": {"[1]": {"system": "Class A carbapenemases (e.g. KPC)", "conditions": "background statement; cited from earlier work"}, "[2]": {"system": "Class B carbapenemases (e.g. NDM-1)", "conditions": "background statement; cited from earlier work"}, "NDM-1-expressing E. coli [3]": {"system": "NDM-1-expressing E. coli", "assay": "NRTP luciferase live cell reporter assay, NDM-1 detection (Example 1)", "format": "cell-based", "conditions": "2 hours at 37° C.; for luminescence signal (% RLU normalized to No Antibiotic): FIG. 2", "description": "An NDM-1 detection assay is produced using a luciferase-expressing non-replicative transduction particle specific to Enterobacteriaceae (as described in PCT/US2014/026536, Example 1), ertapenem, and the chelator Ethylenediaminetetraacetic acid (EDTA).\nA culture of a clinical isolate of an NDM-1-expressing E. coli was prepared in LB media and used to determine the response of the NRTP reporter in the presence of ertapenem, EDTA, and Zinc. The assay was prepared by mixing 50 μL of the cell culture at an OD600 of 0.02 to 50 μL of LB media and 100 μL of NRTP reagent prepared in a microwell plate. The assay was incubated for 2 hours at 37° C. under the following conditions: (1) No additives, (2) with the addition of ertapenem at 0.25 μg/mL, (3) with the addition of ertapenem and EDTA at 750 μg/mL, and (4) with the addition of ertapenem and Zinc sulfate at 70 μg/mL. After the incubation, the samples were assayed for luminescence after the injection of a nonanal reagent as a substrate for the live cell reporter using a Molecular Devices SpectraMax L luminometer.\nThe luminescence readings were then normalized to those produced by sample (1) and plotted as a percentage relative to sample (1) as shown in FIG. 2."}, "KPC-expressing E. coli [4]": {"system": "KPC-expressing E. coli", "assay": "Smarticles live cell luminescence assay with inhibitors (Example 4)", "format": "cell-based", "conditions": "clinical isolates", "description": "(§1) Thus, the ability to quickly detect viable Gram-negative bacteria, determine their susceptibility to carbapenems, and distinguish between carbapenem resistance mechanisms could aid physicians in considering such therapeutic options in the future. […] In this study, a Smarticles™ assay was evaluated for its ability to detect carbapenem resistant E. coli and distinguish between NDM-1 and KPC-expressing organisms.\n(§2) Methods: 26 clinical isolates of E. coli, Klebsiella spp., Enterobacter spp., Citrobacter spp., Proteus spp., and S. marcescens were evaluated using the Smarticles™ assay and ertapenem disk diffusion. CRE isolates included organisms expressing blaKPC and blaNDM-1. The Smarticles™ assay was used with the addition of the chelating agent edetic acid (EDTA) and β-lactamase inhibitor boronic acid to scrutinize clinical isolates of E. coli expressing NDM-1 and KPC."}, "NDM-1-expressing E. coli [5]": {"system": "NDM-1-expressing E. coli", "format": "cell-based", "conditions": "Smarticles assay, clinical isolates", "description": "as §1, §2"}, "KPC-expressing E. coli [6]": {"system": "KPC-expressing E. coli", "assay": "NRTP luciferase live cell reporter assay, KPC detection (Example 2)", "format": "cell-based", "conditions": "2 hours at 37° C.", "description": "In another embodiment of the invention, a KPC detection assay is produced using a luciferase-expressing non-replicative transduction particle specific to Enterobacteriaceae as described in PCT/US2014/026536, Example 1, ertapenem and the β-lactamase inhibitor boronic acid.\nA culture of a clinical isolate of a KPC-expressing E. coli was prepared in LB media and used to determine the response of the NRTP reporter in the presence of ertapenem, and boronic acid. The replicates of the assay were prepared mixing 50 μL of the cell culture at an OD600 of 0.02 to 50 μL of LB media and 100 μL of NRTP reagent prepared in a microwell plate. The assay was incubated for 2 hours at 37° C. under the following conditions: (1) No additives, (2) with the addition of ertapenem at 1 μg/mL, and (3) with the addition of ertapenem and phenyl boronic acid 400 μg/mL. After the incubation, the samples were assayed for luminescence after the injection of a nonanal reagent as a substrate for the live cell reporter using a Molecular Devices SpectraMax L luminometer.\nThe luminescence readings were then normalized to those produced by sample (1) and plotted as the average percentage relative to sample (1) as shown in FIG. 1."}},
  "data": [
    {"molecule": "O=C(NC1CCNCC1)[C@@H]1CC[C@@H]2CN1C(=O)N2OS(=O)(=O)O", "note": "[Relebactam]", "values": [
      {"measurement": "activity against Class A carbapenemases", "setting": "[1]", "value": "shown activity"},
      {"measurement": "activity against Class B carbapenemases", "setting": "[2]", "value": "not against"}
    ]},
    {"molecule": "O=C(O)CN(CCN(CC(=O)O)CC(=O)O)CC(=O)O", "note": "[EDTA, Ethylenediaminetetraacetic acid]", "values": [
      {"measurement": "luminescence signal (% RLU normalized to No Antibiotic)", "setting": "NDM-1-expressing E. coli [3]; ertapenem 0.25 μg/mL and EDTA 750 μg/mL", "value": "significantly decreased"},
      {"measurement": "assay signal in the presence of the inhibitor", "setting": "KPC-expressing E. coli [4]", "value": "not inhibited"},
      {"measurement": "assay signal in the presence of the inhibitor", "setting": "NDM-1-expressing E. coli [5]", "value": "inhibited"}
    ]},
    {"molecule": "C[C@@H](O)[C@H]1C(=O)N2C(C(=O)O)=C(S[C@@H]3CN[C@H](C(=O)Nc4cccc(C(=O)O)c4)C3)[C@H](C)[C@H]12", "note": "[ertapenem]", "values": [
      {"measurement": "luminescence signal (% RLU normalized to No Antibiotic)", "setting": "NDM-1-expressing E. coli [3]; ertapenem 0.25 μg/mL alone", "value": "not significantly decreased"},
      {"measurement": "susceptibility phenotype", "setting": "NDM-1-expressing E. coli [3]; ertapenem 0.25 μg/mL", "value": "non-susceptible"},
      {"measurement": "luminescence signal (% RLU normalized to No Antibiotic)", "setting": "KPC-expressing E. coli [6]; ertapenem 1 μg/mL alone", "value": "not significantly decreased"},
      {"measurement": "susceptibility phenotype", "setting": "KPC-expressing E. coli [6]; ertapenem 1 μg/mL", "value": "non-susceptible"}
    ]},
    {"molecule": "OB(O)c1ccccc1", "note": "[boronic acid, phenyl boronic acid]", "values": [
      {"measurement": "assay signal in the presence of the inhibitor", "setting": "KPC-expressing E. coli [4]", "value": "inhibited"},
      {"measurement": "assay signal in the presence of the inhibitor", "setting": "NDM-1-expressing E. coli [5]", "value": "not inhibited"},
      {"measurement": "luminescence signal (% RLU normalized to No Antibiotic)", "setting": "KPC-expressing E. coli [6]; ertapenem 1 μg/mL and phenyl boronic acid 400 μg/mL", "value": "significantly decreased"}
    ]},
    {"molecule": "O=S(=O)([O-])[O-].[Zn+2]", "note": "[Zinc, Zinc sulfate]", "values": [
      {"measurement": "luminescence signal (% RLU normalized to No Antibiotic)", "setting": "NDM-1-expressing E. coli [3]; ertapenem 0.25 μg/mL and Zinc sulfate 70 μg/mL", "value": "significantly increased"}
    ]}
  ]
}
